Measured values taken from US20250074902A1, “FUSED BICYCLIC HETEROARYL AMIDE COMPOUND AS PROTEIN AGGREGATION INHIBITOR” (SHANGHAI JINGXIN BIOMEDICAL CO., LTD., priority 2021, published 2025).

molecular target: T1, α-synuclein (Homo sapiens, UniProt P37840); experiment: Detection of the ability of compounds to inhibit α-synuclein self-aggregation by HPLC; format: biochemical; conditions: test compound 200 μg/mL, α-synuclein 250 μg/ml, 37° C., 9 days; HPLC peak area of α-synuclein multimers vs model group
T1 construct: purchased Sino Biological
Experimental: The test compound (for poorly soluble compounds, dissolve with an appropriate amount of DMSO first) and fresh α-synuclein monomers (purchased from Sino Biological) were added to pure water to a final protein concentration of 250 μg/ml, and the concentration of the test compound was 200 μg/mL, followed by incubation at 37° C. for 9 days. The peak area of α-synuclein multimers after incubation was detected by HPLC and the inhibition rate was calculated. […] Inhibition rate=(peak area of model group−peak area of example group)/peak area of model group×100%.

| inhibition rate (%) | Structure (SMILES) |
| --- | --- |
| 87.6% | CCCCC(Cc1c[nH]c2ccccc12)NC(=O)c1cc2ccc(N3CCN(C)CC3)cc2o1 (stereo not drawn) [Example 27, N-(1-(1H-indole-3-yl)hexan-2-yl)-6-(4-methylpiperazine-1-yl) benzofuran-2-carboxamide] |

same assay, conditions: test compound 200 μg/mL, α-synuclein 250 μg/ml, 37° C., 9 days; HPLC peak area of α-synuclein multimers vs model group; read-out: inhibition rate (%)

| inhibition at 200 µg/mL | Structure (SMILES) |
| --- | --- |
| 86.8% | CCCCC(Cc1c[nH]c2ccccc12)NC(=O)c1cc2ccc(N3CCN(C)CC3)nc2s1 (stereo not drawn) [Example 2, N-[1-(1H-indol-3-yl)hexyl-2-yl]-6-(4-methylpiperazin-1-yl) thiophene[2,3-b]pyridine-2-carboxamide] |
| 90.6% | CCCCC(Cc1c[nH]c2ccccc12)NC(=O)c1nc2ccc(N3CCN(C)CC3)cc2s1 (stereo not drawn) [Example 4, N-(1-(1H-indol-3-yl)hexane-2-yl)-6-(4-methylpiperazin-1-yl) benzo[d]thiazole-2-carboxamide] |
| 98.6% | CCCCC(Cc1c[nH]c2ccccc12)NC(=O)c1cc2cc(F)c(N3CCN(C)CC3)cc2s1 (stereo not drawn) [Example 5, N-(1-(1H-indol-3-yl)hexane-2-yl)-5-fluoro-6-(4-methylpiperazin-1-yl) benzo[b]thiophene-2-carboxamide] |
| 73.7% | CCCCC(Cc1c[nH]c2ccccc12)NC(=O)c1cc2cnc(N3CCN(C)CC3)cc2s1 (stereo not drawn) [Example 8, N-(1-(1H-indol-3-yl)hexane-2-yl)-6-(4-methylpiperazin-1-yl) thieno[3,2-c] pyridine-2-carboxamide] |
| 73.4% | CCCCC(Cc1c[nH]c2ccccc12)NC(=O)c1sc2cc(N3CCN(C)CC3)ccc2c1C (stereo not drawn) [Example 11, N-(1-(1H-indol-3-yl)hexane-2-yl)-3-methyl-6-(4-methylpiperazin-1-yl) benzo[b]thiophene-2-carboxamide] |
| 86.9% | CCCCC(Cc1c[nH]c2ccccc12)NC(=O)c1cc2ccc(N3CCC(C)CC3)cc2s1 (stereo not drawn) [Example 12, N-(1-(1H-indol-3-yl)hexane-2-yl)-6-(4-methylpiperidin-1-yl) benzo[b]thiophene-2-carboxamide] |
| 89.7% | CCCCC(Cc1c[nH]c2ccccc12)NC(=O)c1cc2ccc(N3CCOCC3)cc2s1 (stereo not drawn) [Example 23, N-(1-(1H-indol-3-yl)hexane-2-yl)-6-morpholinobenzo[b]thiophene-2-carboxamide] |
| 90.8% | CCCCC(Cc1c[nH]c2ccccc12)NC(=O)c1cc2ccc(N3CC4(CN(C)C4)C3)cc2s1 (stereo not drawn) [Example 25, N-(1-(1H-indol-3-yl)hexane-2-yl)-6-(6-methyl-2,6-diazaspiro [3.3]heptane-2-yl) benzo[b]thiophene-2-carboxamide] |
| 73% | CCCCC(Cc1c[nH]c2ccccc12)NC(=O)c1cc2ccc(N3CCN(C)CC3)cc2[nH]1 (stereo not drawn) [Example 28, N-(1-(1H-indole-3-yl)hexane-2-yl)-6-(4-methylpiperazine-1-yl)-1H-indole-2-carboxamide] |
| 96.7% | CCCCC(Cc1c[nH]c2ccccc12)NC(=O)c1cc2cnc(N3CCN(C)CC3)nc2s1 (stereo not drawn) [Example 29, N-(1-(1H-indole-3-yl)hexane-2-yl)-2-(4-methylpiperazine-1-yl) thieno [2,3-d]pyrimidine-6-carboxamide] |

More lines, now with the values behind:

| Structure (SMILES) | inhibition at 200 µg/mL |
| --- | --- |
| CCCCC(Cc1c[nH]c2ccccc12)NC(=O)c1cc2c(F)cc(N3CCN(C)CC3)cc2s1 (stereo not drawn) [Example 6, N-(1-(1H-indol-3-yl)hexane-2-yl)-4-fluoro-6-(4-methylpiperazin-1-yl) benzo[b]thiophene-2-carboxamide] | 97.8% |
| CCCCC(Cc1c[nH]c2ccccc12)NC(=O)c1cc2cc(N3CCN(C)CC3)ccc2s1 (stereo not drawn) [Example 7, N-(1-(1H-indol-3-yl)hexane-2-yl)-5-(4-methylpiperazine-1-yl) benzo[b]thiophene-2-carboxamide] | 71.5% |
| CCCCC(Cc1c[nH]c2ccccc12)NC(=O)c1cc2c(C)nc(N3CCN(C)CC3)cc2s1 (stereo not drawn) [Example 9, N-(1-(1H-indol-3-yl)hexane-2-yl)-4-methyl-6-(4-methylpiperazin-1-yl) thieno[3,2-c]pyridine-2-carboxamide] | 78.1% |
| CCCCC(Cc1c[nH]c2ccccc12)NC(=O)c1cc2cccc(N3CCN(C)CC3)c2s1 (stereo not drawn) [Example 10, N-(1-(1H-indol-3-yl)hexane-2-yl)-7-(4-methylpiperazin-1-yl) benzo[b]thiophene-2-carboxamide] | 73.1% |
| CCCCC(Cc1c[nH]c2ccccc12)NC(=O)c1cc2ccc(N3CCN(C(C)C)CC3)cc2s1 (stereo not drawn) [Example 13, N-(1-(1H-indol-3-yl)hexane-2-yl)-6-(4-isopropylpiperazin-1-yl) benzo[b]thiophene-2-carboxamide] | 94.4% |
| CCCCC(Cc1c[nH]c2ccccc12)NC(=O)c1cc2ccc(N3CCN(c4ccccc4)CC3)cc2s1 (stereo not drawn) [Example 14, N-(1-(1H-indol-3-yl)hexane-2-yl)-6-(4-phenylpiperazine-1-yl) benzo[b]thiobene-2-carboxamide] | 73.5% |
| CCCCC(Cc1c[nH]c2ccccc12)NC(=O)c1cc2ccc(N3CCC(F)(F)CC3)cc2s1 (stereo not drawn) [Example 15, N-(1-(1H-indol-3-yl)hexane-2-yl)-6-(4,4-difluoropiperidin-1-yl) benzo[b]thiophene-2-carboxamide] | 96.2% |
| CCCCC(Cc1c[nH]c2ccccc12)NC(=O)c1cc2ccc(N3CCC(C)(C)CC3)cc2s1 (stereo not drawn) [Example 16, N-(1-(1H-indol-3-yl)hexane-2-yl)-6-(4,4-dimethylpiperidin-1-yl) benzo[b]thiobene-2-carboxamide] | 96.3% |
| CCCCC(Cc1c[nH]c2ccccc12)NC(=O)c1cc2ccc(N3CCN(C)CC3)c(F)c2s1 (stereo not drawn) [Example 17, 7-Fluoro-N-[1-(1H-indol-3-yl)hexyl-2-yl]-6-(4-methylpiperazin-1-yl)-1-benzothiophene-2-carboxamide] | 98.2% |
| CCCCC(Cc1c[nH]c2ccccc12)NC(=O)c1cc2cnc(N3CCC(C)CC3)cc2s1 (stereo not drawn) [Example 18, N-(1-(1H-indol-3-yl)hexane-2-yl)-6-(4-methylpiperidin-1-yl) thieno[3,2-c]pyridine-2-carboxamide] | 76.9% |
| CCCCC(Cc1c[nH]c2ccccc12)NC(=O)c1cc2ccc(N3CCC(O)CC3)cc2s1 (stereo not drawn) [Example 19, N-(1-(1H-indol-3-yl)hexane-2-yl)-6-(4-hydroxypiperidin-1-yl) benzo[b]thiophene-2-carboxamide] | 93.5% |
| CCCCC(Cc1c[nH]c2ccccc12)NC(=O)c1cc2ccc(N3CCC4(CC3)COC4)cc2s1 (stereo not drawn) [Example 20, N-[1-(1H-indol-3-yl)hexane-2-yl]-6-(2-oxa-7-azaspiro [3.5]nonan-7-yl)-1-benzothiophene-2-carboxamide] | 95.6% |
| CCCCC(Cc1c[nH]c2ccccc12)NC(=O)c1cc2ccc(N3CCC4(CC3)CN(C3CCN(C)CC3)C4)cc2s1 (stereo not drawn) [Example 21] | 78.2% |
| CCCCC(Cc1c[nH]c2ccccc12)NC(=O)c1cc2ccc(N3CCC4(CC3)CN(C)C4)cc2s1 (stereo not drawn) [Example 22] | 83.8% |
| CCCCC(Cc1c[nH]c2ccccc12)NC(=O)c1cc2ccc(N3CCC(N(C)C)CC3)cc2s1 (stereo not drawn) [Example 24, N-(1-(1H-indol-3-yl)hexane-2-yl)-6-(4-(dimethylamino)piperidin-1-yl) benzo[b]thiophene-2-carboxamide] | 89.7% |
| CCCCC(Cc1c[nH]c2ccc(F)cc12)NC(=O)c1cc2ccc(N3CCN(C)CC3)cc2s1 (stereo not drawn) [Example 26, N-(1-(5-fluoro-1H-indole-3-yl)hexane-2-yl)-6-(4-methylpiperazine-1-yl) benzo [b] thiophene-2-carboxamide] | 93.3% |
